≈ marks a conversion by molar mass, not a printed value. Blank lines part the entries; values can stand above or below the compound they belong to.
Experiments:
[1] = target: Sodium/hydrogen exchanger 1 (Homo sapiens, UniProt P19634); experiment: Inhibition of human NHE1 by cell based assay
[2] = Clearance in po dosed rat; type: ADME, organism-based; details: in vivo
[3] = Half life in po dosed rat; type: ADME, organism-based; details: in vivo
[4] = target: Integrin alpha-IIb/beta-3 (Homo sapiens, UniProt P05106+P08514); experiment: Inhibition of human GP2b/3a interaction with human fibrinogen after 3 hrs by ELISA; type: protein-complex assay
Sequence of Integrin alpha-IIb/beta-3 (P05106 27-788 limits assumed): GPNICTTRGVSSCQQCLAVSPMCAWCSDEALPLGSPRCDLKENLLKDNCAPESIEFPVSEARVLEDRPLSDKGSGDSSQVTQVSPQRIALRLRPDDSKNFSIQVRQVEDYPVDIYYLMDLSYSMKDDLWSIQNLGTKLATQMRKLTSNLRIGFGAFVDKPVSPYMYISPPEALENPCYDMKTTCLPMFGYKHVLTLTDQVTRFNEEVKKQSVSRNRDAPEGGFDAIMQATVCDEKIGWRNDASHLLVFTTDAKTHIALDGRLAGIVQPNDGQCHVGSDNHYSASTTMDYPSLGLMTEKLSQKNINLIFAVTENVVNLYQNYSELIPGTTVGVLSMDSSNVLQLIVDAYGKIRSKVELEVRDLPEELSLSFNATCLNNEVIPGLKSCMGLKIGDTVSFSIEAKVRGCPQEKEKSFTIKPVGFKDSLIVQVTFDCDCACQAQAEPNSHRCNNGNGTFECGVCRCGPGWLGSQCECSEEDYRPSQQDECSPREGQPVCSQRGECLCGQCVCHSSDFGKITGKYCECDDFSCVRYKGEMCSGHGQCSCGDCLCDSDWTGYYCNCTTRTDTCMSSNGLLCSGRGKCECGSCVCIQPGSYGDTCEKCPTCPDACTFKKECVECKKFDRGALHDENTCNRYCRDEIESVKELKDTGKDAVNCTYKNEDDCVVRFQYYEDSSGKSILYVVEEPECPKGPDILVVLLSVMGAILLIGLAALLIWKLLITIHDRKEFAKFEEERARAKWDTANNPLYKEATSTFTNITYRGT
Sequence of Integrin alpha-IIb/beta-3 (P08514 32-887 limits assumed): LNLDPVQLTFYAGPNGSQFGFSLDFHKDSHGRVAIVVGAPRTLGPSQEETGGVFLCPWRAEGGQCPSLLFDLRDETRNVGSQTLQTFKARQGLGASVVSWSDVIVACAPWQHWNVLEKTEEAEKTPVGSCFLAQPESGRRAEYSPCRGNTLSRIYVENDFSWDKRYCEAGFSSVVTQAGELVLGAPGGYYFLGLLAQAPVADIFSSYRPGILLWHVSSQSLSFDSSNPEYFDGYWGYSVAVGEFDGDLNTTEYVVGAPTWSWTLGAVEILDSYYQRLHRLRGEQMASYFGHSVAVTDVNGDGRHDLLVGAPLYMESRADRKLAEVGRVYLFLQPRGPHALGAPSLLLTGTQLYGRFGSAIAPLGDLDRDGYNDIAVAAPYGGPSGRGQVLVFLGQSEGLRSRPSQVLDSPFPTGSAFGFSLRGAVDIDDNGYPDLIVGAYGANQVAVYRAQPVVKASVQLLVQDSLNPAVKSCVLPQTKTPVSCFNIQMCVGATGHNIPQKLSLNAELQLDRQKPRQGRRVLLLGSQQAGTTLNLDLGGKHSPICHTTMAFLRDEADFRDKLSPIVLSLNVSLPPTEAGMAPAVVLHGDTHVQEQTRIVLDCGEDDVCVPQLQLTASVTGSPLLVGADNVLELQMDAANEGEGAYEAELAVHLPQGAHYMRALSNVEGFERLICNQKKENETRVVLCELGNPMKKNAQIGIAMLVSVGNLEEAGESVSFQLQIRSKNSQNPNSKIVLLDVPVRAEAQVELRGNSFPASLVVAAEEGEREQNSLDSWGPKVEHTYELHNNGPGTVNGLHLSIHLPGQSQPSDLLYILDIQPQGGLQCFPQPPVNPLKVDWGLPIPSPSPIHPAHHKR
Sequence of Integrin alpha-IIb/beta-3 (P08514 891-1039 limits assumed): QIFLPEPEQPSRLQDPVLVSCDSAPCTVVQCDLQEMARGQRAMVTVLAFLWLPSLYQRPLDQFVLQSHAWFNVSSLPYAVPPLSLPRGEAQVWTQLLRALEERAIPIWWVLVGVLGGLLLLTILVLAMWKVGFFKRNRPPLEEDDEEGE

[5] = Half life in Hartley guinea pig at 1 mg/kg, iv measured up to 180 mins post dose by HPLC analysis; type: ADME, organism-based, Cavia porcellus; details: in vivo
[6] = Cmax in Sprague-Dawley rat at 10 mg/kg, po measured up to 120 mins post dose by HPLC analysis; type: ADME, organism-based; set-up: dose 10 mg/kg, route oral; details: in vivo
[7] = Tmax in Sprague-Dawley rat at 10 mg/kg, po measured up to 120 mins post dose by HPLC analysis; type: ADME, organism-based; details: in vivo
MCF7 = experiment: Cytotoxicity against human MCF7 cells assessed as reduction in protein synthesis; type: functional, cell-based
HeLa = experiment: Cytotoxicity against human HeLa cells assessed as reduction in protein synthesis at 0.05 uM; type: functional
Interstitial collagenase = Interstitial collagenase (Homo sapiens, UniProt P03956); experiment: Inhibition of human interstitial recombinant N-terminal MMP1 expressed in Escherichia coli BL21(DE3) using Mca-Pro-Leu-Gly-Leu-Dpa-Ala-Arg-NH2 as substrate after 20 to 30 mins by spectrofluorimetric analysis
Sequence of Interstitial collagenase (P03956 whole entry): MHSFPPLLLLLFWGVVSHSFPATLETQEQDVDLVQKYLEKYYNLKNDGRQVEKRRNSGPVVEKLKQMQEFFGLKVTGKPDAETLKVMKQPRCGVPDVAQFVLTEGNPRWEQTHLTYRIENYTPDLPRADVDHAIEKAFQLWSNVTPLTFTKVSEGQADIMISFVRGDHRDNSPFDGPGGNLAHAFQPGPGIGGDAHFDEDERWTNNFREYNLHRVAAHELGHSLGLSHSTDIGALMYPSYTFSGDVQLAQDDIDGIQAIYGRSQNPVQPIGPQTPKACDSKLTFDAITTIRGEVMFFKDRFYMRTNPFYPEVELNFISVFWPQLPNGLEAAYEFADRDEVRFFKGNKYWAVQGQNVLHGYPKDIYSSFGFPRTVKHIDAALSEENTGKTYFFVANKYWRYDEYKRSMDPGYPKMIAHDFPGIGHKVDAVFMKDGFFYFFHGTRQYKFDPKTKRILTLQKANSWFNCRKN

Matrilysin = target: T1, Matrilysin (Homo sapiens, UniProt P09237); experiment: Inhibition of MMP7 (unknown origin) expressed in Escherichia coli BL21(DE3) using Mca-Pro-Leu-Gly-Leu-Dpa-Ala-Arg-NH2 as substrate after 20 to 30 mins by spectrofluorimetric analysis
T1 sequence (P09237 whole entry): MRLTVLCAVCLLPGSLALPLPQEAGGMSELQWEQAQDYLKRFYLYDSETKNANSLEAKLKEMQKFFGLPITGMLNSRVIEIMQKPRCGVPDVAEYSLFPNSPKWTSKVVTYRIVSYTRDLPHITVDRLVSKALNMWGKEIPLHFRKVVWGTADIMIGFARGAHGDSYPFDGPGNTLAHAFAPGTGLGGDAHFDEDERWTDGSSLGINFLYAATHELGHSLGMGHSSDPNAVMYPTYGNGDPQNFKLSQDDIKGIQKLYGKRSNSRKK

Collagenase 3 = Collagenase 3 (Homo sapiens, UniProt P45452); experiment: Inhibition of MMP13 (unknown origin) expressed in Escherichia coli BL21(DE3) using Mca-Pro-Leu-Gly-Leu-Dpa-Ala-Arg-NH2 as substrate after 20 to 30 mins by spectrofluorimetric analysis
Rattus norvegicus [8] = experiment: Anti-hypertensive activity in conscious spontaneously hypertensive Okamoto rat assessed as reduction in systolic blood pressure at 10 mg/kg, po measured up to 6 hrs post dose relative to control; type: functional; set-up: scale not given: the % may be the effect or the level left
Prothrombin = Prothrombin (Bos taurus, UniProt P00735); experiment: Inhibition of bovine plasma thrombin using chromogenix AB as substrate after 30 secs by UV-spectrophotometry
Rattus norvegicus [9] = experiment: Anti-hypertensive activity in conscious spontaneously hypertensive Okamoto rat assessed as reduction in systolic blood pressure at 0.3 mg/kg, po measured up to 6 hrs post dose relative to control; type: functional; set-up: scale not given: the % may be the effect or the level left
Rattus norvegicus [10] = experiment: Anti-hypertensive activity in conscious spontaneously hypertensive Okamoto rat assessed as reduction in systolic blood pressure at 1 mg/kg, po measured up to 6 hrs post dose relative to control; type: functional; set-up: scale not given: the % may be the effect or the level left
[11] = tested on: Human immunodeficiency virus 1; experiment: Antiviral activity against HIV1; type: functional
1A9 = experiment: Cytotoxicity against human 1A9 cells; type: functional, cell-based
Homo sapiens = species on record: Homo sapiens; experiment: Antagonist activity at nAChR (unknown origin) relative to (+/-)-mecamylamine
Enterococcus faecalis = experiment: Antibacterial activity against Enterococcus faecalis; type: functional
Rattus norvegicus [12] = experiment: Anti-hypertensive activity in conscious spontaneously hypertensive Okamoto rat assessed as reduction in systolic blood pressure at 3 mg/kg, po measured up to 6 hrs post dose relative to control; type: functional; set-up: scale not given: the % may be the effect or the level left
[13] = tested on: Trypanosoma brucei brucei; experiment: Antitrypanosomal activity against Trypanosoma brucei brucei after 72 hrs by resazurin-based fluorescence assay; type: functional
[14] = target: 5-hydroxytryptamine receptor 2C (Homo sapiens, UniProt P28335); experiment: Agonist activity at human 5-HT2C receptor expressed in mouse NIH/3T3 cells assessed as induction of IP3 formation after 0.5 hrs; type: functional, cell-based
Sequence of 5-hydroxytryptamine receptor 2C (P28335 whole entry): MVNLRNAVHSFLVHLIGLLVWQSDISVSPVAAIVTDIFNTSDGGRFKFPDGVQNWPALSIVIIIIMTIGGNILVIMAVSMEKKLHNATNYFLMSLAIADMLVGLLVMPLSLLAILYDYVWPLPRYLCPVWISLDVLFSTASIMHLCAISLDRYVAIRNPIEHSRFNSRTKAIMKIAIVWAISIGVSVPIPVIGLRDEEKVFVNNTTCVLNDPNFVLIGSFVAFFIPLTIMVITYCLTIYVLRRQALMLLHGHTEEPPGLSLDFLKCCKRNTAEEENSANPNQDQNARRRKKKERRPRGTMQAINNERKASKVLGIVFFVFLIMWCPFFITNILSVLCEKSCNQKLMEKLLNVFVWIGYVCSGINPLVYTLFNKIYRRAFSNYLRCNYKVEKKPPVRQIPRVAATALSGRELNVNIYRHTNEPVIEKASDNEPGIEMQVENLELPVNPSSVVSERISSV

[15] = Inhibition of bacterial DNA gyrase subunit B; set-up: species or system Bacteria

Sequence of Sodium/hydrogen exchanger 1 (P19634 whole entry): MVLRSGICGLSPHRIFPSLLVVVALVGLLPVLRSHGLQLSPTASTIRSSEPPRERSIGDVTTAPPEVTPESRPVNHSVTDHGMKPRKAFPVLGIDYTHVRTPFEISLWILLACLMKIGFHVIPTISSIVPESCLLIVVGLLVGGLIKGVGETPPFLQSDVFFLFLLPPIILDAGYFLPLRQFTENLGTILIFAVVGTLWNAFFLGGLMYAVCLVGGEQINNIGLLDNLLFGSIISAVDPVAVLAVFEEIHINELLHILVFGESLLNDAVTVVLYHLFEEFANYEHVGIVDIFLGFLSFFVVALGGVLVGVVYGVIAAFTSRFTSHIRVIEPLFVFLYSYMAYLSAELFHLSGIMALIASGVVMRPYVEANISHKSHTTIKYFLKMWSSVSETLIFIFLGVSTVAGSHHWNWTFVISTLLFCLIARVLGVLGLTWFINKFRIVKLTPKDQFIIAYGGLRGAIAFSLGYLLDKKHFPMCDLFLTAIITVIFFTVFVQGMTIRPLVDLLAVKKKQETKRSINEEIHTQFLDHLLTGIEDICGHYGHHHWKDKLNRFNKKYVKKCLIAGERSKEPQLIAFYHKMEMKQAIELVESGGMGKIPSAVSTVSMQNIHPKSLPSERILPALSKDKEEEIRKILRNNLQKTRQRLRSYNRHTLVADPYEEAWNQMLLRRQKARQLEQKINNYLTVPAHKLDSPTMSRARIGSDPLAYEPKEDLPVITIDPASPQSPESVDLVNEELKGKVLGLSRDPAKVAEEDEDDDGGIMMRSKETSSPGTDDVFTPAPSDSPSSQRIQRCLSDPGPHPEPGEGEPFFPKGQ

IC50 [1]: 10 nM | CL/F [2]: 74 mL/min/kg | half-life [3]: 3 h
SMILES: CC1(C)[C@H](C(=O)N=C(N)N)[C@H]1c1cccc2c1CCO2

IC50 [4]: 2.3 nM | half-life [5]: 1.83 h | Cmax [6]: 1210 ng/mL | Tmax [7]: 0.5 h
SMILES: CCOC(=O)CC1CCN(C(=O)CC(CC)NC(=O)c2ccc(C(=N)N3CCSC3)cc2F)CC1 (racemic)

SMILES: COC(=O)C[C@](O)(CCCC(C)(C)O)C(=O)O[C@@H]1C(OC)=C[C@]23CCCN2CCc2cc4c(cc2[C@H]13)OCO4 [OMACETAXINE MEPESUCCINATE]
IC50 (MCF7): 0.87 nM | inhibition at 0.05 µM (HeLa): 50%

IC50 (Interstitial collagenase): 64 nM | IC50 (Matrilysin): 1100 nM | IC50 (Collagenase 3): 1.9 nM
SMILES: COc1ccc(S(=O)(=O)N2CCCSC[C@@H]2C(=O)NO)cc1

SMILES: CC1Oc2ccc([N+](=O)[O-])cc2[C@@H](N2CCCC2=O)[C@@H]1O (stereo not given in full)
Activity (Rattus norvegicus [8]): 34%

Ki (Prothrombin): 500 nM
SMILES: N=C(N)NCCC[C@H](NS(=O)(=O)c1cccc2c1NCCC2)C(=O)N1CCC(CCO)CC1

IC50 (Matrilysin): 2030 nM
SMILES: COc1ccc(S(=O)(=O)N2CCSCC2C(=O)NO)cc1 (stereo not given)

SMILES: CC1(C)Oc2ccc([N+](=O)[O-])cc2[C@@H](N2CCCC2=O)[C@@H]1O
Activity (Rattus norvegicus [9]): 27% | Activity (Rattus norvegicus [10]): 63%

SMILES: C=C(C)[C@@H]1CC[C@]2(C(=O)O)CC[C@]3(C)[C@H](CC[C@@H]4[C@@]5(C)CC[C@H](O)C(C)(C)[C@@H]5CC[C@]43C)[C@@H]12 [BETULINIC ACID]
EC50 [11]: 1400 nM

SMILES: CC(=O)O[C@@]12CO[C@@H]1C[C@H](O)[C@@]1(C)C(=O)[C@H](O)C3=C(C)[C@@H](OC(=O)[C@H](O)[C@@H](NC(=O)OC(C)(C)C)c4ccccc4)C[C@@](O)([C@@H](OC(=O)c4ccccc4)[C@H]21)C3(C)C [DOCETAXEL ANHYDROUS]
IC50 (1A9): 3.55 nM

SMILES: O=C1CCCN1[C@@H]1c2cc([N+](=O)[O-])ccc2OC[C@H]1O
Activity (Rattus norvegicus [8]): 5%

SMILES: CCCc1cc(=O)oc2c3c(c4c(c12)OC(C)(C)C=C4)O[C@H](C)[C@@H](C)[C@@H]3O [CALANOLIDE A]
EC50 [11]: 2.85 nM

fold change (FC) (Homo sapiens): 1.4
SMILES: CN[C@]1(C)[C@H]2CC[C@@H](C2)C1(C)C

SMILES: CC1=C[C@@H]2[C@@H]([C@@H]3[C@H]1\C=C/C=C/C=C\[C@@H](O)[C@H](C)[C@H](O)C/C=C(C)/C=C/C(=O)O[C@H]3c1ccc(O)cc1)C(C)(C)C[C@@]2(C)O
MIC (Enterococcus faecalis): 0.3 µg/mL (≈ 0.51 µM)

SMILES: CC1(C)Oc2ccc(C#N)cc2C(N2CCCC2=O)C1O (single isomer, unassigned; (+)) [CROMAKALIM]
Activity (Rattus norvegicus [12]): 14%

SMILES: CNC1C[C@H]2CC[C@H]1C2 (mixture of isomers)
fold change (FC) (Homo sapiens): > 40

SMILES: O=C(Nc1ccc2c(c1)B(O)OC2)c1ccc(F)cc1C(F)(F)F
IC50 [13]: 180 nM

SMILES: COc1ccc2c(c1)-c1c(cnn1C[C@H](C)N)C2(C)C
Ki [14]: 2.51 nM

SMILES: COc1ccc2c(c1)-c1c(cnn1C[C@H](C)N)C2
Ki [14]: 2.51 nM

SMILES: CC(=O)O[C@H]1C(=O)[C@@]2(C)[C@H]([C@H](OC(=O)c3ccccc3)[C@]3(O)C[C@H](OC(=O)[C@H](O)[C@@H](NC(=O)c4ccccc4)c4ccccc4)C(C)=C1C3(C)C)[C@]1(OC(C)=O)CO[C@@H]1C[C@@H]2O [PACLITAXEL]
IC50 (1A9): 3.71 nM

IC50 [15]: 80 nM
SMILES: CO[C@@H]1[C@@H](OC(N)=O)[C@@H](O)[C@H](Oc2ccc3c(O)c(NC(=O)c4ccc(O)c(CC=C(C)C)c4)c(=O)oc3c2C)OC1(C)C [NOVOBIOCIN]

From ChEMBL document CHEMBL4033775, “Natural-Products-Inspired Use of the gem-Dimethyl Group in Medicinal Chemistry” (J Med Chem, 2018)
